{"source": "patent EP0059645A1", "about": "“Method and kit for identification of beta-lactamases” (NATIONAL RESEARCH DEVELOPMENT CORPORATION, priority 1981, dated 1982)", "key": {"[1]": {"target": "T1, Chromosomal, constitutive beta-lactamase enzyme (Enterobacter cloacae, UniProt P05364)", "T1 construct": "Normally, therefore, the beta-lactamase has to be extracted from the cells for the purpose of the present invention; endogenous in cells", "T1 sequence (P05364 21-381)": "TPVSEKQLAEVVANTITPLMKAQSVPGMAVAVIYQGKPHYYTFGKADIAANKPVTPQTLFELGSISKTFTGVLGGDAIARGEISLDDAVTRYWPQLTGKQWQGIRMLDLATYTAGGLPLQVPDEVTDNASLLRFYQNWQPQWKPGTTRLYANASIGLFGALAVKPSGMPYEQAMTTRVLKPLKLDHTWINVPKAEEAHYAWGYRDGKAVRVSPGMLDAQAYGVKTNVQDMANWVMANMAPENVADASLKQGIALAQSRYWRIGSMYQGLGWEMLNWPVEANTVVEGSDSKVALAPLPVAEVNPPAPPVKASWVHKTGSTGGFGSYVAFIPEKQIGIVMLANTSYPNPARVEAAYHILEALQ", "assay": "Competitive assay with nitrocefin (RSAI)", "type": "biochemical, E. cloacae"}, "TEM-1": {"target": "TEM-1 (Escherichia coli, UniProt P62593)", "sequence (P62593 24-286 limits assumed)": "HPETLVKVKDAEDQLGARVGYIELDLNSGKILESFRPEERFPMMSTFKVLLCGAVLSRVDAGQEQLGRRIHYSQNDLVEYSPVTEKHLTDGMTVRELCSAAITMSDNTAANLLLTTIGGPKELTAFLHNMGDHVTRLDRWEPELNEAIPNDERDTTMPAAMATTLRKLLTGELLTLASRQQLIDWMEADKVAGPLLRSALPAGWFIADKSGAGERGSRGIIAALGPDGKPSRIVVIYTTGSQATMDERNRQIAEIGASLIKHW", "assay": "Competitive assay with nitrocefin (RSAI)", "type": "biochemical, E. coli 2136E", "design": "the beta-lactamase has to be extracted from the cells for the purpose of the present invention; made in house; host or cells: E. coli 2136E (plasmid-bearing strain; crude cell extract)"}, "PSE-4": {"target": "PSE-4 (Pseudomonas aeruginosa, UniProt P16897)", "sequence (P16897 18-288)": "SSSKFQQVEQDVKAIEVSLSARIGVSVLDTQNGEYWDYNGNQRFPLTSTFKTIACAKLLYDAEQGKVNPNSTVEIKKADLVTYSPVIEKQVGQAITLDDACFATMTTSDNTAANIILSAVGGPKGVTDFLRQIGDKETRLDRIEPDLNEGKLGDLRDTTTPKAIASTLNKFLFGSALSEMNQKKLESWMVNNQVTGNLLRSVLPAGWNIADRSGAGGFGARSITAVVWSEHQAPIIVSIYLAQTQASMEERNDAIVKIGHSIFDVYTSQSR", "assay": "6-well visual test with nitrocefin", "conditions": "3 minutes, room temperature"}, "PSE-1 [2]": {"target": "T2, PSE-1 (Pseudomonas aeruginosa, UniProt Q03170)", "T2 sequence (Q03170 18-288)": "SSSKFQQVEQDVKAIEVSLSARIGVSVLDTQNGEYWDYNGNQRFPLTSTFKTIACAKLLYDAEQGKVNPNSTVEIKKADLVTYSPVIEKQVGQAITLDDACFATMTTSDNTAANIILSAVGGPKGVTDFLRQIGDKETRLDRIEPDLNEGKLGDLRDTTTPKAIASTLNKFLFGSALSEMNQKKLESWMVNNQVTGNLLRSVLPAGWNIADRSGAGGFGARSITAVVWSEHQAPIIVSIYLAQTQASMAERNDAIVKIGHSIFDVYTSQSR", "assay": "6-well visual test with nitrocefin", "conditions": "3 minutes, room temperature"}, "OXA-3": {"target": "OXA-3 (Pseudomonas aeruginosa, UniProt Q51429)", "sequence (Q51429 22-275)": "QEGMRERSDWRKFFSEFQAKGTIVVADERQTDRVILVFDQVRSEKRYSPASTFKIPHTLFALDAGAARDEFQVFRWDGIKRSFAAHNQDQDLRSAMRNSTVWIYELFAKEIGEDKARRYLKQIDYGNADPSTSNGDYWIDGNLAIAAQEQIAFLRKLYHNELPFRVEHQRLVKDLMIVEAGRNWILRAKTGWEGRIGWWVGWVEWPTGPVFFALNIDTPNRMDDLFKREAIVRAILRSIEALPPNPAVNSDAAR", "assay": "Competitive assay with nitrocefin (RSAI)", "type": "biochemical, E. coli R57B", "design": "Normally, therefore, the beta-lactamase has to be extracted from the cells for the purpose of the present invention; endogenous in cells"}, "PSE-2": {"target": "PSE-2 (Pseudomonas aeruginosa, UniProt P14489)", "sequence (P14489 20-266)": "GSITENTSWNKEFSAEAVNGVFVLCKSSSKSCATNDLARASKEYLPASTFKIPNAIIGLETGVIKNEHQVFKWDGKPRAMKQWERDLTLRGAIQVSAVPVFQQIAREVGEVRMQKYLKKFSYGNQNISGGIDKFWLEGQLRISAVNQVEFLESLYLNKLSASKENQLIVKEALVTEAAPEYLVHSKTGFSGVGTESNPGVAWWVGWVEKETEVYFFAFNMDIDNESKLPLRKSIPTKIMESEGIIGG", "assay": "Competitive assay with nitrocefin (RSAI)", "type": "biochemical, Ps.aerug. 1973E", "design": "Normally, therefore, the beta-lactamase has to be extracted from the cells for the purpose of the present invention; endogenous in cells"}, "SHV-1": {"target": "SHV-1 (Escherichia coli, UniProt P0AD63)", "sequence (P0AD63 22-286)": "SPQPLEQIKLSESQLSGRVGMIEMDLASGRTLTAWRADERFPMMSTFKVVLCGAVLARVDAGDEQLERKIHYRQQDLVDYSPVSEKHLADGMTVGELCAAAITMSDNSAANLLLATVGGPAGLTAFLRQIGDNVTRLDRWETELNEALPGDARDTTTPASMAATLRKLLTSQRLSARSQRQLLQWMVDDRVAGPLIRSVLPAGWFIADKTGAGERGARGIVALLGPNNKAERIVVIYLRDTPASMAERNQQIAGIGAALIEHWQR", "assay": "6-well visual test with nitrocefin", "conditions": "3 minutes, room temperature"}, "PSE-1 [3]": {"target": "T2, PSE-1", "assay": "Competitive assay with nitrocefin (RSAI)", "type": "biochemical, Ps.aerug. 1937E", "design": "Normally, therefore, the beta-lactamase has to be extracted from the cells for the purpose of the present invention; endogenous in cells"}, "[4]": {"conditions": "well A: Cefoxitin 20:1 to nitrocefin"}, "[5]": {"conditions": "well E: Cefoxitin 200:1 to nitrocefin"}}, "note": "Marks after values point to notes of the source that are not given here.", "data": [{"smiles": "CO[C@@]1(NC(=O)Cc2cccs2)C(=O)N2C(C(=O)O)=C(COC(N)=O)CS[C@@H]21", "note": "[Cefoxi-tin, cefoxitin]", "values": [{"measurement": "RSAI", "setting": "[1]", "value": 0.01}, {"measurement": "RSAI", "setting": "TEM-1", "value": "60*"}, {"measurement": "Score in 6-well visual test", "setting": "PSE-4; [4]", "value": "+"}, {"measurement": "Score in 6-well visual test", "setting": "PSE-4; [5]", "value": "-"}, {"measurement": "Score in 6-well visual test", "setting": "PSE-1 [2]; [4]", "value": "++"}, {"measurement": "Score in 6-well visual test", "setting": "PSE-1 [2]; [5]", "value": "-"}, {"measurement": "RSAI", "setting": "OXA-3", "value": 0.004}, {"measurement": "RSAI", "setting": "PSE-2", "value": 24}, {"measurement": "Score in 6-well visual test", "setting": "SHV-1; [4]", "value": "++"}, {"measurement": "Score in 6-well visual test", "setting": "SHV-1; [5]", "value": "+"}, {"measurement": "RSAI", "setting": "PSE-1 [3]", "value": 20}]}]}
